Patent US12569482B2, “Methods and compositions for treating idiopathic pulmonary fibrosis” (priority 2018, dated 2026)
“Also recorded” adds a separate entry of the source. Like-named read-outs stand apart in the source and are kept apart here.

Experiments:
[1] = tested on: bleomycin-induced lung fibrosis; assay: Bleomycin induced IPF mouse model, Example 1 (oral nintedanib or fluconazole); type: in vivo, C57BL/6 mice; conditions: nintedanib 60 mg/kg
Method: Forty male C57BL/6 mice (Nanjing Biomedical Research Institute of Nanjing University) were randomly divided into two groups on Day 1, 10 animals for one group (referred to as Control group or Group 1) and 30 for the other. The animals in the Control group were administered intratracheally with PBS at a dose of 2 mL/kg while the others were administered intratracheally with bleomycin (Cat #HY-17565, MCE) at a dose of 0.66 mg/kg.
(§1) On Day 5, the mice with bleomycin treatment were divided into three groups at random (referred to as Group 2-4, n=10), and orally administered with vehicle (0.5% Methyl cellulose), nintedanib (Kangmanlin Co. Ltd., prepared in 0.5% Methyl cellulose with a final concentration of 6.0 mg/mL) and fluconazole (Kangmanlin Co. Ltd., prepared in 0.5% Methyl cellulose with a final concentration of 7.0 mg/mL) at daily doses of 10 mL/kg, 60 mg/kg and 70 mg/kg, respectively. The mice in the Control group was administered with vehicle (0.5% Methyl cellulose) at a daily dose of 10 mL/kg. Mice body weights were measured and recorded on Day 1, 5, 12, 19 and 25.
(§2) Two hours post drug administration on Day 25, all animals were anaesthetized with pentobarbital (i.p., 65 mg/kg). Blood samples were collected from orbital vein, put in tubes pre-coated with EDTA-K2 (KANG JIAN, Cat #KJ202), centrifuged at 4000×g for 10 minutes at 4° C. and then stored at −80° C. for determination of plasma drug levels. Then, the trachea was exposed, and bronchoalveolar lavage fluid (BALF) was collected from each mouse by injecting 0.3 mL of saline into trachea close to the larynx for three times. After BALF collection, mice were perfused with saline, and all four lung lobes were collected from each mouse, fixed in 10% NBF solution, embedded in paraffin and cut into 5 μm-thick sections. The sections were de-paraffinized with xylene and ethanol and subject to Haematoxylin-Eosin, Masson Trichrome and α-SMA IHC staining.
The bronchoalveolar lavage fluid of 20 μL was mixed with 20 μL of trypan blue to determine the cell number. Then, the cells in the BALF were concentrated using a Cytospinat at 1,000 rpm for 5 minutes, smeared on slides and then stained with Diff-Quik stain. Cell types (alveolar macrophages, neutrophils, or lymphocytes) were determined by counting at least 200 cells using a standard hemocytometer. The rest BALFs were centrifuged and supernatants were collected and stored at −80° C. for soluble collagen analysis.
The Haematoxylin-Eosin staining was used to identify and quantitate the inflammatory cells in the tissues, and the total inflammation area was calculated using the AperioScanScope software.
The sections with Masson Trichrome staining were scored for pulmonary fibrosis according to the modified Ashcroft fibrosis rating criteria in Table 1 below. Each lung lobe was divided into 4 parts according to the distance from the main bronchus, i.e., the upper, upper middle, lower middle and lower parts, which were scored separately and averaged later.
α-SMA is a well characterized marker in fibrosis. Immunohistochemistry staining of α-SMA is often used to characterize and quantitate the tissue fibrosis. Increased staining of α-SMA often reflects accumulation of collagen-producing myofibroblasts. Before α-SMA IHC staining, the de-paraffinized sections were treated with citrate antigen retrieval solution (0.01 N citrate buffer, pH 6.0) at 100° C. for 10 minutes, and then incubated with rabbit polyclonal anti-α-SMA (1:400, ab5694, Abcam) for 1 hour followed by goat anti-rabbit HRP (K4003, Dako). DAB substrate kit (DAB0031, Maixin, Shanghai) was used for chromogenic staining. All sections were further counter-stained with hematoxylin. […] α-SMA staining areas were calculated using the AperioImageScope program.
Statistical analysis was performed using student's T-test, one-way or two-way ANOVA followed by post-hoc Dunnett's test if significant. […] The difference was considered significant when p<0.05. *p<0.05, **p<0.01, ***[…].

[2] = parameters: species or system C57BL/6 mice; conditions: C57BL/6, mouse, in vivo, 2 h
Method: as §1
as §2, with “The sections were de-paraffinized with xylene and ethanol and subject to Haematoxylin-Eosin, Masson Trichrome and α-SMA IHC staining.” left out

[3] = Drug concentrations in plasma and lung tissues after 5 days of oral or inhalation dosing; type: in vivo, healthy male mice; conditions: male, mouse; for Kp at 2 h: lung tissue and plasma, read-out: levels in lung tissues relative to plasma; for concentration at 2 h: q.d., 5 days, two hours after last dose
Method: In a separate experiment, three groups of healthy male mice were treated with itraconazole for 5 consecutive days. Animals in Group A were orally administered with itraconazole in DMSO:PEG400 (1:9, v/v) at a daily dose of 15 mg/kg, while mice in Group B and C were subject to 3-min inhalation treatment of itraconazole of 15 mg/mL and 50 mg/mL, respectively. Two hours after the last dose, plasma samples and lung tissues were collected as described above. These samples were sent to an independent bioanalytical service lab to determine the levels of itraconazole, and results were summarized in Table 3.

[4] = cited from earlier work
[5] = Plasma exposure levels in the bleomycin-induced lung fibrosis mouse study; type: in vivo
Source text: Because the relevancy to human efficacy in bleomycin-induced lung fibrosis mouse model, though well established in preclinical studies (Moeller, 2008), has not been established, a new version of the bleomycin-induced lung fibrosis mouse study protocol was designed, with marketed anti-fibrotic drugs, namely pirfenidone and nintedanib, as positive controls.

[6] = Plasma drug levels, Example 2; type: in vivo, C57BL/6 mice; conditions: C57BL/6, mouse
Method: On Day 5, the mice with bleomycin treatment were divided into four groups at random (referred to as Group 2-5, n=10), and orally administered with vehicle (DMSO: PEG400=1:9, V/V), itraconazole (Kangmanlin Co. Ltd. prepared in DMSO/PEG400 with a final concentration of 1.5 mg/mL), nintedanib (Kangmanlin Co. Ltd., prepared in DMSO/PEG400 with a final concentration of 6.0 mg/mL), and itraconazole+nintedanib (prepared in DMSO/PEG400 with final concentrations of 1.5 mg/mL and 6.0 mg/mL) at daily doses of 10 mL/kg, 15 mg/kg, 60 mg/kg and 15+60 mg/kg, respectively. The mice in the Control group was administered with vehicle (DMSO/PEG400) at a daily dose of 10 mL/kg. Mice body weights were measured and recorded on Day 1, 5, 12, 19 and 21.
Two hours post drug administration on Day 21, all animals were anaesthetized with pentobarbital (i.p., 60 mg/kg). Blood sample, bronchoalveolar lavage fluid (BALF) and lung lobes were collected from each mouse and then processed following the protocols in Example 1.

[7] = mice, cited from earlier work
[8] = cited from earlier work; remark: listed apart in the source
[9] = tested on: sol elastase activity of CF sputum; conditions: unprocessed CF sputum directly treated; cited from earlier work

## OC(Cn1cncn1)(Cn1cncn1)c1ccc(F)cc1F [fluconazole]
[1]; Haematoxylin-Eosin staining, fluconazole 70 mg/kg p.o. daily
  reduction of lung inflammation area: not observed
[1]; Masson Trichrome staining, fluconazole 70 mg/kg p.o. daily
  reduction of modified Ashcroft score: not observed
[1]; fluconazole 70 mg/kg daily dose
  anti-IPF activities / fibrosis related endpoint measurements (overall): did not show detectable changes; also recorded: failed to show any significant anti-IPF activities
[1]; oral daily Day 5-25, fluconazole 70 mg/kg, vs bleomycin + vehicle
  BALF collagen levels: No collagen level reduction
[1]; α-SMA IHC, fluconazole 70 mg/kg p.o. daily
  reduction of α-SMA staining area: not observed
[2]
  plasma level relative to that of itraconazole at 15 mg/kg: over 62 fold

## CCC(C)n1ncn(-c2ccc(N3CCN(c4ccc(OCC5COC(Cn6cncn6)(c6ccc(Cl)cc6Cl)O5)cc4)CC3)cc2)c1=O (centres unmarked) [itraconazole]
[3]; inhaled, 5 days of inhalation at 15 mg/mL for 3 min
  Kp at 2 h: ~7.3
[3]; inhaled, inhalation dose of 50 mg/mL for 3 min
  Kp at 2 h: 8.3
[3]; 5 days of oral dosing at 15 mg/kg
  Kp at 2 h: ~1.3
[3]; lung tissue, inhaled, Group B: i.h., 15 mg/mL for 3 min, read-out: Lung Tissue Concentrations
  concentration at 2 h: 590 ng/mL
[3]; lung tissue, inhaled, Group C: i.h., 50 mg/mL for 3 min, read-out: Lung Tissue Concentrations
  concentration at 2 h: 1400 ng/mL
[3]; lung tissue, po, Group A: p.o., 15 mg/kg, read-out: Lung Tissue Concentrations
  concentration at 2 h: 172 ng/mL
[3]; plasma, inhaled, Group B: i.h., 15 mg/mL for 3 min, read-out: Plasma Concentrations
  concentration at 2 h: 80.9 ng/mL
[3]; plasma, inhaled, Group C: i.h., 50 mg/mL for 3 min, read-out: Plasma Concentrations
  concentration at 2 h: 168 ng/mL
[3]; plasma, po, Group A: p.o., 15 mg/kg, read-out: Plasma Concentrations
  concentration at 2 h: 133 ng/mL
[4]; 200 mg (PO/BID)
  Cmax at steady state: 2000 ng/mL
[4]; 200 mg (PO/QD)
  Cmax at steady state: 1100 ng/mL
[4]; post oral administration, multiple dosing
  time to steady state plasma levels: around 15 days
[4]; post oral dose
  time at which peak plasma levels are reached: 2 to 5 h
[5]; itraconazole alone at 7.5 mg/kg
  plasma exposure level: 394 ± 66 ng/mL
[5]; itraconazole alone at 15 mg/kg
  plasma exposure level: 899 ± 192 ng/mL
[6]; oral, Day 21, itraconazole 15 mg/kg, nintedanib 60 mg/kg p.o. daily, read-out: two-hour post dosing plasma level, single agent
  concentration at 2 h: 700 ng/mL
[6]; po, Day 21, 15+60 mg/kg p.o. daily, read-out: two-hour post dosing plasma drug level, itraconazole and nintedanib combined in administration
  concentration at 2 h: 518 ng/mL
[7]; aerosolized dose
  serum levels relative to pulmonary concentrations: 25 to 50 times lower
[7]; after completion of nebulization
  time to effective anti-fungal pulmonary concentrations: ≤ 60 min
[8]; in 0.1N HCl
  solubility: 4 to 6 µg/mL
[8]; in water
  solubility: 0.001 to 0.004 µg/mL

## DNase
[9]
  increase of sol elastase activity: 190%

B1: reduced rhTrx: stable reduced form of recombinant human thioredoxin (protein, UniProt P10599 2-105, looked up)
Thioredoxin: VKQIESKTAFQEALDAAGDKLVVVDFSATWCGPCKMIKPFFHSLSEKYSNVIFLEVDVDDCQDVASECEVKCMPTFQFFKKGQKVGEFSGANKEKLEATINELV
modifications: reduced form
[9]
  increase of sol elastase activity: 60%
